These are literature values, as cited in patent US7361789B1, “Dihydronaphthalene compounds, compositions, uses thereof, and methods for synthesis” (Amgen Inc., priority 2004, dated 2008).

Molecules are shown by their SMILES. Read-outs that look alike come from different tables or passages of the source.

As to `C[C@@H](NCCCc1cccc(C(F)(F)F)c1)c1cccc2ccccc12` [cinacalcet], the solubility in water entry (neutral pH) was “less than 1 μg/mL”. Besides, the solubility result (pH is about 1) is “about 0.1 mg/mL” and the solubility entry (pH ranges from about 3 to about 5) is on record as “about 1.6 mg/mL”.
